From ChEMBL document CHEMBL1201862, “PubChem BioAssay data set” (2004)
The source made the active and inactive calls.

Tests used:
[1] = inhibitors of SNCA 5'UTR-driven reporter translation, confirmation, H4 neuroglioma cells, luminescence (AID 1988); assay type: functional, cell-based
Bcl-2-like protein 10 = target: T1, Bcl-2-like protein 10 (Homo sapiens, UniProt Q9HD36); experiment: displacers of TR3 peptide from Bcl-B, primary screen, selectivity assay for Bfl-1 inhibitor project, biochemical, fluorescence polarization, FITC-TR3 peptide (AID 748);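 also: fluorescence polarization from a fluorescein-labelled TR3 peptide binding purified Bcl-B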
T1 sequence (Q9HD36 whole entry): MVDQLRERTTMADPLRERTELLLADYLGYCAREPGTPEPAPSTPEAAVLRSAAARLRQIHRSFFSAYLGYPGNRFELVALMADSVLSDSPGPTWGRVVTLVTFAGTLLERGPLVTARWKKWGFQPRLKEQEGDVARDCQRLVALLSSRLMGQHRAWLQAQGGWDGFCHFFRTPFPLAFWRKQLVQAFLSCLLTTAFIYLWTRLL

[2] = inhibitors of firefly luciferase expression or activity, dose response, H4 neuroglioma cells, luminescence (AID 1990); assay type: functional, cell-based
[3] = Luminescence Cell-Based Dose Response HTS to Identify Inhibitors of 5'UTR Stem-Loop Driven Prion Protein mRNA Translation in H4 Neuroglioblastoma Cells. [Related pubchem assays: 1827 (Project Summary), 1813 (Primary HTS)]; assay type: functional
[4] = target: T2, Neuropeptide Y receptor type 2 (Homo sapiens, UniProt P49146); experiment: Fluorescence-based cell-based high-throughput dose response assay for agonists of NPY-Y2. [Related pubchem assays: 1703 (Screening assay (CNGC inhibitors).), 1359 (Screening assay (NPY-Y2 potentiators or agonists).), 1304 (Screening assay (NPY-Y1 potentiators or agonists).), 1710 (Screening assay (NPY-Y2 agonists).), 1791 (Summary AID.)]; assay type: functional
T2 sequence (P49146 whole entry): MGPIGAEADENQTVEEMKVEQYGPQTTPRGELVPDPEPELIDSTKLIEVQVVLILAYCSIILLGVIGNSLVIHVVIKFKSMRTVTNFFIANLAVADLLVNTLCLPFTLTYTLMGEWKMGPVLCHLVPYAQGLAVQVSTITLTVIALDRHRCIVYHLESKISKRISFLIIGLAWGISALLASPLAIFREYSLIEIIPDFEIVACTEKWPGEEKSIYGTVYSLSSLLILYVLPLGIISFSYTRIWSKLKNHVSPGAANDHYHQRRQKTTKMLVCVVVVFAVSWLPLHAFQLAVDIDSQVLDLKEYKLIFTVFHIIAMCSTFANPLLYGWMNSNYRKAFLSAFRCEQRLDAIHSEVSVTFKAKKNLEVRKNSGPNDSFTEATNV

HEK293 [5] = experiment: Fluorescence-based counterscreen for potentiators or agonists of NPY-Y2: cell-based high-throughput dose response assay to identify inhibitors of cyclic nucleotide gated ion channel (CNGC) activity. In this assay, the parental HEK293 cell line transfected with a cyclic-nucleotide gated ion channel (CNGC)-based cAMP sensor is used to measure inhibition of isoproterenol-induced CNGC activity by test compound.; assay type: functional; conditions: Homo sapiens
[6] = target: T3, Neuropeptide Y receptor type 1 (Homo sapiens, UniProt P25929); experiment: Fluorescence-based counterscreen for agonists of NPY-Y2: cell-based high-throughput dose response assay for agonists of NPY-Y1.; assay type: functional
T3 sequence (P25929 whole entry): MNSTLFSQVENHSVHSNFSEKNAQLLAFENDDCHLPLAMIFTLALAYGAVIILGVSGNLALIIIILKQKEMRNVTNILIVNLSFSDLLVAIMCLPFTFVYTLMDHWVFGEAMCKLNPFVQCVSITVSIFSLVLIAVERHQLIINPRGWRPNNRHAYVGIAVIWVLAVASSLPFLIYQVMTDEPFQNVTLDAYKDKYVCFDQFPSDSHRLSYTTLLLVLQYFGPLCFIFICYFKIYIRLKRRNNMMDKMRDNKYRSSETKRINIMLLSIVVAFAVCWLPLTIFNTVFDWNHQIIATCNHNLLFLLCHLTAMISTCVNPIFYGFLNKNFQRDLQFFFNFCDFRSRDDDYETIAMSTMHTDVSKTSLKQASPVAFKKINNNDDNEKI

[7] = target: G-protein coupled receptor 55 (Homo sapiens, UniProt Q9Y2T6); experiment: GPR55 agonists via beta-arrestin recruitment, primary screen, imaging, U2OS cells, beta-arrestin-GFP redistribution (AID 1961); assay type: functional
Sequence of G-protein coupled receptor 55 (Q9Y2T6 whole entry): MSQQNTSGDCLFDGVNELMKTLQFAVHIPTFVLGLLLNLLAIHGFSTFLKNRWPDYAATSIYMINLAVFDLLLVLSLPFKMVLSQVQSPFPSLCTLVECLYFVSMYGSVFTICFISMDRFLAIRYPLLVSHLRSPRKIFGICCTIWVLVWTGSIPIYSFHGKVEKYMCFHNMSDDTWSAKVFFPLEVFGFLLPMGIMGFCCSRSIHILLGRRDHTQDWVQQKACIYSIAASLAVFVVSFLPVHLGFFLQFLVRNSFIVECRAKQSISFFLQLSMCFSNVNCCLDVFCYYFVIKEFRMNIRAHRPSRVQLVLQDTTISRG

cells = assay type: functional, cell-based
[8] = inhibitors of SNCA 5'UTR-driven translation, confirmation, luminescence, H4 neuroglioblastoma cells, dose confirmation (AID 2454); assay type: functional, cell-based;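 also: H4 neuroglioblastoma cells carrying an alpha-synuclein 5'UTR luciferase reporter; potency for inhibition of the luciferase signal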
[9] = luciferase reporter signal reduction – luminescence, H4-C neuroglioblastoma cells, dose response (AID 2458); assay type: functional, cell-based;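 also: H4 neuroglioblastoma cells stably carrying a luciferase reporter gene fusion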
[10] = cytotoxicity in HEK-293T cells, dose response, cytotoxicity control for BCR NF-kB inhibitor project, luminescence, B-cell screen hits (AID 489021); assay type: functional, cell-based;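 also: HEK-293T cells carrying an NF-kB luciferase reporter; cells exposed to compound for about 14 hours before viability readout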
[11] = Luminescence Cell-Based Dose Retest to Confirm Inhibitors of Cancer Stem Cells. [Related pubchem assays (depositor defined):AID2717, AID2721]; assay type: functional; conditions: Homo sapiens
[12] = target: Peroxisome proliferator-activated receptor gamma/Nuclear receptor coactivator 2 (Homo sapiens, UniProt P37231); assay type: functional;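 also: agonist potency for raising coactivator recruitment to the receptor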
Sequence of Peroxisome proliferator-activated receptor gamma/Nuclear receptor coactivator 2 (P37231 whole entry): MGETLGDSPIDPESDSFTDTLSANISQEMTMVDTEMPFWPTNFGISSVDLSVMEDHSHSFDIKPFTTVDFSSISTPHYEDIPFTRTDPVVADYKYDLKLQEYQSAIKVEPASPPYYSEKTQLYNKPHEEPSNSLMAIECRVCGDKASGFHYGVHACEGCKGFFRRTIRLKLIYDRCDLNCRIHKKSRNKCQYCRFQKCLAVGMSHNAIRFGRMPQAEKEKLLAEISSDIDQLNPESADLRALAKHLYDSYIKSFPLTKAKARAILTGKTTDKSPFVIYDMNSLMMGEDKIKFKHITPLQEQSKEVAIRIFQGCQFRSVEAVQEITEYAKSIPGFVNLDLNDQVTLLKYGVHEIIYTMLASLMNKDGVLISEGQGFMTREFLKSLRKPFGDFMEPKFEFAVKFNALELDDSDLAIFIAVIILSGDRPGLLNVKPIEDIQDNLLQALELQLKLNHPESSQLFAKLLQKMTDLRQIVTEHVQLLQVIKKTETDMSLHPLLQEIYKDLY
Sequence of Peroxisome proliferator-activated receptor gamma/Nuclear receptor coactivator 2 (Q15596 whole entry, further chain): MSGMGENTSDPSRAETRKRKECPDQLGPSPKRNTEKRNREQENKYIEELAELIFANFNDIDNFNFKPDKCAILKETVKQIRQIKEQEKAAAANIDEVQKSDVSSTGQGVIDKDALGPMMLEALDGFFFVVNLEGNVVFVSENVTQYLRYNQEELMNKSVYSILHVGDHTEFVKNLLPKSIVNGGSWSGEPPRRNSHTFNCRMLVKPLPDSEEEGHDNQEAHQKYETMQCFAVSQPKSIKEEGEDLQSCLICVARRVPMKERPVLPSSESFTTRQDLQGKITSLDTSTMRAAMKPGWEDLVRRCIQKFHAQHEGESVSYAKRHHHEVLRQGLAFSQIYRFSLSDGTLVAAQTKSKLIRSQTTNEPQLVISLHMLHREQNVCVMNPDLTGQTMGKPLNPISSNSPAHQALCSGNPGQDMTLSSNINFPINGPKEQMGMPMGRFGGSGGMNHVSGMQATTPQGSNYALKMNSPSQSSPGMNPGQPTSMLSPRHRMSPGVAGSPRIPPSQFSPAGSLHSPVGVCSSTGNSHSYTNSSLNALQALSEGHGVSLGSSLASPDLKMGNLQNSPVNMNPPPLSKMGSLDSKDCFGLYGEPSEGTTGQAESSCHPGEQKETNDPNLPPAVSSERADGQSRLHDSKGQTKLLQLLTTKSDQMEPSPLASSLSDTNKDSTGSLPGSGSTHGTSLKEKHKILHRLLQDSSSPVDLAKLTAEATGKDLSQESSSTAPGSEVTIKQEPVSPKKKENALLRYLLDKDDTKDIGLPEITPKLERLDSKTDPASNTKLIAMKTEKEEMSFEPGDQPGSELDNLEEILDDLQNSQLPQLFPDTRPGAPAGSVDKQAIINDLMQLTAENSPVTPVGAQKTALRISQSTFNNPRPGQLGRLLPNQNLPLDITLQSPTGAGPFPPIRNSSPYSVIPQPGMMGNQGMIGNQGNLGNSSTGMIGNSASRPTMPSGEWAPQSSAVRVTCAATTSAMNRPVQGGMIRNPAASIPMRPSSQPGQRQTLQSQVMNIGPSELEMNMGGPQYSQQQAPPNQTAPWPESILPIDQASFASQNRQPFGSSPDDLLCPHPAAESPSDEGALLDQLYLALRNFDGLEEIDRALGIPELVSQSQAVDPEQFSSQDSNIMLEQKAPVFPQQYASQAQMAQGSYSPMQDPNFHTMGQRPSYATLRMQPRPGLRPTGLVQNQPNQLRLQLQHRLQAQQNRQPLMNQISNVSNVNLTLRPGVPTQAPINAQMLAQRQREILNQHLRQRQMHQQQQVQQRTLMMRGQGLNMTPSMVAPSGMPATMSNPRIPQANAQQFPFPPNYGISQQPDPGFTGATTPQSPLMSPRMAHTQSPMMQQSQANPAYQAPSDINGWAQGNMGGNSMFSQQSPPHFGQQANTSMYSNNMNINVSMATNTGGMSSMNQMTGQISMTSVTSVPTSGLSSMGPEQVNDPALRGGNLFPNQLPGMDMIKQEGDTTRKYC

[13] = target: Peroxisome proliferator-activated receptor gamma/Nuclear receptor coactivator 3 (Homo sapiens, UniProt P37231); assay type: functional;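 also: agonist potency for raising coactivator recruitment to the receptor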
Sequence of Peroxisome proliferator-activated receptor gamma/Nuclear receptor coactivator 3 (P37231 whole entry): as the sequence (P37231 whole entry) above
Sequence of Peroxisome proliferator-activated receptor gamma/Nuclear receptor coactivator 3 (Q9Y6Q9 whole entry, further chain): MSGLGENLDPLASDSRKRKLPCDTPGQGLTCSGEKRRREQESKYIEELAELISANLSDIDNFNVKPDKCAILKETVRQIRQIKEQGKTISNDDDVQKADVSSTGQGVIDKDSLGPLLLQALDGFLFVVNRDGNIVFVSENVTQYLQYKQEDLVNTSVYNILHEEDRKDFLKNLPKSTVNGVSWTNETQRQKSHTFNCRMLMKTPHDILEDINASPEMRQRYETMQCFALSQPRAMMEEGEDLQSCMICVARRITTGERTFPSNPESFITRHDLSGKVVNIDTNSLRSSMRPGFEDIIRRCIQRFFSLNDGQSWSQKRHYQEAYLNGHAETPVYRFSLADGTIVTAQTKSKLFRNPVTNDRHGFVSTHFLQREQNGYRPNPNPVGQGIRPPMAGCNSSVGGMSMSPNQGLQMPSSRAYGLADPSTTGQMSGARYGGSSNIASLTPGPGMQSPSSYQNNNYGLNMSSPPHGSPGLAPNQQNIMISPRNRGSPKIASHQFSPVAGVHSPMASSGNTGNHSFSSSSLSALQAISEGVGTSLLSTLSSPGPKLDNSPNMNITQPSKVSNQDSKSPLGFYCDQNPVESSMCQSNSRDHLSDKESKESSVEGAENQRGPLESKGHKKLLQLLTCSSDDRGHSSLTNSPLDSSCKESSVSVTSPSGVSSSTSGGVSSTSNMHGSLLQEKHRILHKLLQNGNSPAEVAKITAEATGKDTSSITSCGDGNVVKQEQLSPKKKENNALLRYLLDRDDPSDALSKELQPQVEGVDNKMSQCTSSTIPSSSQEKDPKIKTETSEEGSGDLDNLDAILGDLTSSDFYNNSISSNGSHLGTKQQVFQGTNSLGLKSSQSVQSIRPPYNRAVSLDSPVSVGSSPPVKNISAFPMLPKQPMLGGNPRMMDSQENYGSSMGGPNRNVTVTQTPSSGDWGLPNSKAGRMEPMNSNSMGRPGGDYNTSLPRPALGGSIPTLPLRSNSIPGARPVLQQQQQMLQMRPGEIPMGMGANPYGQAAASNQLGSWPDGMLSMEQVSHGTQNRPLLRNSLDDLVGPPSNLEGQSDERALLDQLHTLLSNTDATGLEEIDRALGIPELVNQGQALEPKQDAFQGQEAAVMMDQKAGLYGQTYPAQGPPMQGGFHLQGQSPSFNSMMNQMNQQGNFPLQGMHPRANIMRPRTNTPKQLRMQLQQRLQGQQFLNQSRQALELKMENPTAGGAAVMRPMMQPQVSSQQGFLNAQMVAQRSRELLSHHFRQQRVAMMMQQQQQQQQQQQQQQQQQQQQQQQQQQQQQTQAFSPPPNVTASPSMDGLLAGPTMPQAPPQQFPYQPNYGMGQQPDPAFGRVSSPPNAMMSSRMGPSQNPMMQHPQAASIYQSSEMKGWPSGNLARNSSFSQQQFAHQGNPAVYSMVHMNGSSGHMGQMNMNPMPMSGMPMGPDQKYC

Protein skinhead-1 = target: T4, Protein skinhead-1 (Caenorhabditis elegans, UniProt P34707); assay type: functional
T4 sequence (P34707 whole entry): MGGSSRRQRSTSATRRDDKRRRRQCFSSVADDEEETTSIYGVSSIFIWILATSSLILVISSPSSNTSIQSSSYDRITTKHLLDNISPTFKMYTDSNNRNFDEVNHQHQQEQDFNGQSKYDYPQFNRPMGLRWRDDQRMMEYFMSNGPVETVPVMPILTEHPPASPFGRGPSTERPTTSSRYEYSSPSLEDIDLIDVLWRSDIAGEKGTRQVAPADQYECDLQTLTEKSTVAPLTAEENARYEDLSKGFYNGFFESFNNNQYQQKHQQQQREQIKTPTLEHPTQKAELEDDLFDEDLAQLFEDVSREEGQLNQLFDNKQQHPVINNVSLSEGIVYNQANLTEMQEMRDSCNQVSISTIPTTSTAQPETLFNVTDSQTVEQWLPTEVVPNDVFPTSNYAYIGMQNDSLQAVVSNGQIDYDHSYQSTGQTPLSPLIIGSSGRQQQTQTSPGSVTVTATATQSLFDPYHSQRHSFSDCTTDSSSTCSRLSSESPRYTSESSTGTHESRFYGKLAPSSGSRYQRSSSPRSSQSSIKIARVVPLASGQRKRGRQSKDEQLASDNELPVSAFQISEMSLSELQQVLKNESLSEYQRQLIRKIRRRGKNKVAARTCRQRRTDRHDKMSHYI

[14] = target: Peroxisome proliferator-activated receptor gamma/Nuclear receptor coactivator 1 (Homo sapiens, UniProt P37231); assay type: functional;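 also: agonist potency as compounds enhance coactivator SRC-1 recruitment to PPARgamma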
HEK293 [15] = experiment: inhibitors of LMP1-driven NF-kB reporter, dose response, cell-based, HEK293, luciferase, cherry-pick (AID 588343); assay type: functional; conditions: Homo sapiens

For c1coc(C2Nc3cccc4cccc(c34)N2)c1, which EC50 [1] is on record?
The EC50 was > 120 µM (not active).

What about the IC50 (Bcl-2-like protein 10) of the same compound?
Its IC50 is 42.8 µM (active).

And the EC50 [2]?
Its EC50 is > 120 µM (not active).

What about the EC50 [3] of the same compound?
Its EC50 is > 120 µM (not active).

For O=C(Nc1ccccc1Cl)c1c(F)c(F)c(F)c(F)c1F, which EC50 [4] is on record?
Its EC50 is > 35.4 µM (not active).

And the EC50 (HEK293 [5])?
The EC50 was > 35.4 µM (not active).

And the EC50 [6]?
Its EC50 is > 35.4 µM (not active).

With Cc1ccc2c(Cl)cc(Cl)c(OCC(=O)Nc3ccc(C)c(S(=O)(=O)N(C)C)c3)c2n1 as the compound, how does the EC50 [7] read?
The EC50 was > 32 µM (inactive).

For Cn1c2ccc(Br)cc2c2nnc(SCC(=O)O)nc21, which EC50 (cells) is on record?
Its EC50 is > 12 µM (not active).

And the EC50 [8]?
Its EC50 is 9.55 µM (active).

And the EC50 [1]?
Its EC50 is 29.3 µM (active).

What about the EC50 [2] of the same compound?
Its EC50 is > 60 µM (not active).

What about the EC50 [3] of the same compound?
Its EC50 is < 0.1 µM (active).

What about the EC50 [9] of the same compound?
Its EC50 is > 12 µM (not active).

With Cc1cc(C)cc(NC(=O)Nc2ccc(NC(=O)c3ccccc3O)cc2)c1 as the compound, how does the IC50 [10] read?
The IC50 was > 80 µM (inactive).

What about the AC50 [11] of the same compound?
Its AC50 is 0.167 µM (active).

Which EC50 [12] does the source give for CSC1=NC(C)(C)CC2(CC(c3ccccc3)Oc3cc(O)ccc32)N1 (stereo unspecified) here?
The EC50 was > 79.4 µM (not active).

And the EC50 [13]?
Its EC50 is > 79.4 µM (not active).

And the IC50 (Protein skinhead-1)?
Its IC50 is > 100 µM (inactive).

And the EC50 [14]?
The EC50 was > 79.4 µM (not active).

With CCOC(=O)CNC(=O)CSc1nnc(NC(=O)c2ccc(C)cc2)s1 as the compound, how does the IC50 [10] read?
Its IC50 is > 80 µM (inactive).

What about the EC50 [1] of the same compound?
The EC50 was 7.31 µM (active).

What about the AC50 (HEK293 [15]) of the same compound?
The AC50 was 1.65 µM (active).

And the EC50 [2]?
The EC50 was 9.66 µM (active).

And the EC50 [3]?
The EC50 was 11 µM (active).

With COc1cccc(-c2noc(CCC(=O)NCCc3ccccc3)n2)c1 as the compound, how does the IC50 [10] read?
The IC50 was > 80 µM (inactive).
